# Assay results as given in US5840714A, “Inclusion complexes of racemic ibuproxam and of optically active ibuproxam with cyclodextrin derivatives, pharmaceutical preparations containing said inclusion complexes and methods for using same” (priority 1993, dated 1998).
# Experiments:
# [1] = test system: gastric mucous membrane; experiment: Effect on gastric mucous membrane (irritation); format: in vivo, rats
# Description: […] After 4 hours its effect on irritation of gastric mucous membrane was measured in a way that the rate of bleeding in stomach and frequency of ulcers was determined.
# [2] = test system: convulsions caused by phenylbenzoquinone; experiment: Alleviation of pain (phenylbenzoquinone-induced convulsions); format: in vivo, female mice; settings: Mus musculus, po, read-out: ED50 (50% pain protection); 95% confidence limit; peroral, 30 minutes before intraperitoneal phenylbenzoquinone
# Description: The effect of alleviating pain was tested with the number of convulsions caused by phenylbenzoquinone. Female mice, weight 15 to 22 g, were fasted before the test for 24 hours and after the application water and food were ad libitum. 30 minutes after peroral introduction of the suspension of active substance in 10% gum arabic solution, individual mice were intraperitoneally administered 0.25 ml of 0.02% phenylbenzoquinone solution. Only the vehicle was applied to a control group of animals. The number of phenylbenzoquinone-induced convulsions was pursued 5 to 20 minutes after the application thereof.
# ED50 calculated dosis of the active substance in mg per 1 kg of the
# animal, which dosis caused a 50% pain protection
# [3] = test system: oedema caused by carrageenin; experiment: Antiinflammatory action in vivo (carrageenin oedema); set-up: species or system rats
# Description: Antiinflammatory action was measured in vivo by the inhibition of oedema caused by carrageenin.
# Rats, which were fasted overnight, were given 100 mg/kg of the test substance 1 hour before the injection of 0.1 ml 1% carrageenin suspension.
# [4] = in vivo; settings: po
# Description: (§1) In the test mice of Han-NMRI strain of both sexes, weight 19 to 24 g, and female rats of Han-WISTAR strain, weight 220 to 250 g, were used. The active substance was suspended in arachis oil and applied perorally. The volume of the applied suspension was 0.2 ml/20 g body weight in mice and 0.2 ml/200 g body weight in rats. Before the test the animals were fasted for 24 hours and after application, water and food were available ad libitum.
# [5] = test system: mice of Han-NMRI strain; experiment: in vivo; settings: for comparative toxicity (in words): peroral, mice and rats
# Description: as §1
# [6] = cited from earlier work
# [7] = cited from earlier work; remark: listed apart in the source
# [8] = in vivo; cited from earlier work
# [9] = irrespective of application route; cited from earlier work
# [10] = mouse, in vivo, 2000 mg/kg, % of deaths after 15 days, female mice, 2000 mg/kg peroral
# [11] = mouse, in vivo, 2000 mg/kg, % of deaths after 15 days, male mice, 2000 mg/kg peroral
# [12] = mouse, in vivo, 2000 mg/kg, % of deaths in 24 h, female mice, 2000 mg/kg peroral
# [13] = mouse, in vivo, 2000 mg/kg, % of deaths in 24 h, male mice, 2000 mg/kg peroral
smiles,measurement,setting,value
"CC(C)Cc1ccc([C@H](C)C(=O)NO)cc1 [S-(+)-ibuproxam, S-(+)-2-(4-isobutylphenyl)-propiohydroxamic acid]",irritation of gastric mucous membrane,"[1]; dose 30 mg/kg peroral, rate of bleeding and frequency of ulcers after 4 hours",0
same,irritating effect on gastric mucous membrane (in words),"[1]; rat, in vivo",did not exhibit an irritating effect on gastric mucous membrane
same,ED50,[2],73 mg/kg
same,antiinflammatory action,"[3]; 100 mg/kg peroral, 1 hour before carrageenin, oedema inhibition 3 hours after carrageenin",37
same,comparative antiinflammatory action (in words),"[3]; rat, in vivo",greater antiinflammatory action than free racemic ibuproxam
same,mortality at 360 h,[4]; [10],0%
same,mortality at 360 h,[4]; [11],0%
same,mortality at 24 h,[4]; [12],0%
same,mortality at 24 h,[4]; [13],0%
same,mortality at 24 h,"[4]; rat, 1000 mg/kg",0%
same,mortality at 360 h,"[4]; rat, 1000 mg/kg",50%
same,mortality at 360 h,"[4]; rat, 2000 mg/kg",50%
same,animals died (in words),"[5]; female mice, 1000 mg/kg or 2000 mg/kg peroral, 15 days",no animal died
same,animals died (in words),"[5]; male mice, 2000 mg/kg peroral",no animal died
same,animals died in 15 days (in words),"[5]; mice of both sexes, 2000 mg/kg peroral",no animal died in 15 days
same,comparative toxicity (in words),[5],less toxic than S-(+)-ibuprofen
CC(C)Cc1ccc([C@H](C)C(=O)O)cc1 [S-(+)-ibuprofen],irritation of gastric mucous membrane,"[1]; rat, in vivo, 30 mg/kg",12
same,pharmacological activity (in words),[6]; in vivo,pharmacologically active
same,mortality at 360 h,"[4]; mouse, in vivo, 1000 mg/kg, % of deaths after 15 days, female mice, 1000 mg/kg peroral",10%
same,mortality at 24 h,"[4]; mouse, in vivo, 1000 mg/kg, % of deaths in 24 h, female mice, 1000 mg/kg peroral",10%
same,mortality at 360 h,[4]; [10],10%
same,mortality at 360 h,[4]; [11],30%
same,mortality at 24 h,[4]; [12],10%
same,mortality at 24 h,[4]; [13],0%
same,mortality at 48 h,"[4]; mouse, in vivo, 2000 mg/kg, animals died in 48 hours, male mice, 2000 mg/kg peroral",30%
same,LD50,[4]; rat,< 1000 mg/kg
same,mortality at 24 h,"[4]; rat, 1000 mg/kg",0%
same,mortality at 144 h,"[4]; rat, 1000 mg/kg",83.3%
same,mortality at 360 h,"[4]; rat, 1000 mg/kg",83.3%
same,comparative toxicity (in words),[5],acute toxicity of S-(+)-ibuprofen in all test animals is greater than acute toxicity of S-(+)-ibuproxam
CC(C)Cc1ccc([C@@H](C)C(=O)O)cc1 [R-(-)-enantiomer],conversion to S-(+)-enantiomer in humans,[6]; humans,"only one third thereof, is converted to S-(+)-enantiomer"
"CC(C)Cc1ccc(C(C)C(=O)O)cc1 (centres unmarked) [ibuprofen, 2-(4-isobutylphenyl)-propionic acid]",LD50 comparison at parenteral application,[7],the same for both substances
same,"analgetic, antipyretic and antiinflammatory action (in words)",[8],"same analgetic, antipyretic and antiinflammatory action of both substances"
"CC(C)Cc1ccc(C(C)C(=O)NO)cc1 (racemic) [racemic ibuproxam, 2-(4-isobutylphenyl)-propiohydroxamic acid]",LD50 comparison at parenteral application,[7],the same for both substances
same,"analgetic, antipyretic and antiinflammatory action (in words)",[8],"same analgetic, antipyretic and antiinflammatory action of both substances"
same,bioavailability in comparison with ibuprofen (in words),[8],better bioavailability of ibuproxam in comparison with ibuprofen
same,toxicity for the mucous membrane of the alimentary tract (in words),[8],less toxic for the mucous membrane of the alimentary tract
same,metabolic conversion into ibuprofen (in words),[9],rapid and almost complete metabolic conversion into ibuprofen
